From patent US6784175B2, “Use of substituted 1-amino-5-phenylpentane-3-ol and/or 1-amino-6-phenylhexane-3-ol compounds as medicaments” (Gruenenthal GmbH, priority 2000, dated 2004)
pKi: −log10 of the molar value.

How the values were obtained:
[1] = tested on: (+)-MK801 binding site of the ionotropic NMDA receptor; assay: (3H)-(+)-MK801 receptor bonding test on rat cerebral membrane homogenates; settings: 1 nmol/l (3H)-(+)-MK801, rat brain membrane homogenate; for Percentage inhibition of (3H)-(+)-MK801 binding at 10 μM: 10 μmol/l compound, triple determinations; for pKi: calculated from IC50 by Cheng-Prusoff equation
Description: Research to determine the NMDA antagonistic effect of each compound in general formula I was carried out on cerebral membrane homogenates (homogenate of rat brain without cerebellum, pons and medulla oblongata taken from male Wistar rats (Charles River, Sulzfeld, Germany)).
For this purpose, after separating the cerebellum, pons and medulla oblongata, freshly prepared rat brains were macerated in 50 mmol/l of tris/HCl (pH 7.7) with a Polytron homogeniser (model PT3000, Kinematika AG, Littau, Switzerland) at 6000 revolutions per minute (rpm) for 1 minute with ice cooling and centrifuged for 15 minutes at 4° C. and 60,000 g. After decanting and discarding the supernatant, again placing in 50 mmol/l of tris/HCl (pH 7.7) and macerating the membrane pellet with a homogeniser at 2000 rpm for 1 minute, it was centrifuged again for 15 minutes at 4° C. and 60,000 g. The supernatant was again discarding and the membrane pellet homogenised (2000 rpm for 1 minute) in 50 mmol/l of tris/HCl (pH 7.7) and frozen in aliquots at −70° C.
For the receptor bonding test, each aliquot was defrosted and then centrifuged for 15 minutes at 4° C. and 60,000 g. After decanting and discarding the supernatant, the membrane pellet was taken up with bonding test buffer and homogenised (2000 rpm for 1 minute). The bonding test buffer was 5 mmol/l tris/HCl (pH 7.7) supplemented with 30 μmol/l of glycine and 100 μmol/l of glutamic acid.
1 nmol/l of (^3H)-(+)-MK801 ((5R, 10S)-(+)-5-methyl-10,11-dihydro-5H-dibenzo(a,d)cycloheptane-5,10-imine was used as a radioactively marked ligand (NET-972, NEN, Cologne Germany). The proportion of unspecific bonding was determined in the presence of 10 μmol/l of non-radioactively marked (+)-MK801 (RBI/Sigma, Deisenhofen, Germany). In further batches, each of the compounds of general formula I were added in series of concentrations and the displacement of the radioactive ligand out of its specific bond to the NMDA receptor determined. All the batches were subjected to triple determinations. The batches were each incubated for 40 minutes at 25° C. in a water bath and then harvested for determination of the radioactive ligand bound to the cerebral membrane homogenate by means of filtration through glass-fibre filters (GF/B) (Whatman GF/B, Hassel, Munich, Germany). The radioactivity retained by the glass-fibre filter discs was measured in a β counter (Packard TRI-CARB Liquid Scintillation Analyser 2000CA, Packard Instrument, Meriden, Conn. 06450, USA) after adding a scintillator (“Ready Protein” scintillator, Beckmann Coulter GmhH, Krefeld, Germany).
The percentage inhibition of the specific bonding of the ligand (^3H)-(+)-MK801 in the presence of 10 μmol/l of each compound of general formula I resulting from the triple batches is used as a measure of the affinity of the compound for the (+)-MK801 binding site of the ionotropic NMDA receptor. From batches with concentration series of these compounds of general formula I, the IC50 values (concentration of substituted compounds with 50% displacement of radioactive ligand out of its specific bond) were calculated in accordance with the law of mass action using non-linear regression. From these IC50 values, the Kj values were calculated in accordance with the Cheng-Prusoff equation (Y. Cheng, W. H. Prusoff, 1973, Biochem. Pharmacol., 22, pp 3099-3108).

SMILES: Cc1ccccc1C(C1CCCCC1(O)CCc1ccccc1Cl)N(C)C.Cl (stereo not drawn) [Example 15, 1-[2-(2-chlorophenyl)ethyl]-2-(dimethylamino-o-tolylmethyl)cyclohexanol, hydrochloride]
- melting point: 190 to 194 °C
- Percentage inhibition of (3H)-(+)-MK801 binding at 10 μM [1]: 100%
- pKi ([1]; hydrochloride): 6.15

SMILES: CN(C)C(c1ccccc1F)C1CCCCC1(O)CCc1ccccc1Cl.Cl (stereo not drawn) [Example 19, 1-[2-(2-chlorophenyl)ethyl]-2-(dimethylamino-(2-fluorophenyl)methyl]cyclohexanol, hydrochloride]
- melting point: 213 °C
- Percentage inhibition of (3H)-(+)-MK801 binding at 10 μM [1]: 102%
- pKi [1]: 6.10

SMILES: Cc1ccccc1C(C1CCCCC1(O)CCc1ccccc1Cl)N1CCCC1.Cl (stereo not drawn) [Example 23, 1-[2-(2-chlorophenyl)ethyl]-2-(pyrrolidine-1-yl-o-tolylmethyl)cyclohexanol, hydrochloride]
- melting point: 155 °C
- Percentage inhibition of (3H)-(+)-MK801 binding at 10 μM [1]: 101%
- pKi [1]: 6.40
